# Data as given in patent US20260085077A1, “HETEROCYCLIC DERIVATIVES AS JANUS KINASE INHIBITORS” (CHIESI FARMACEUTICI S.P.A., priority 2022, published 2026).
# Test system: IL-13 induced pSTAT6 in BEAS-2B human cell line
# Assay: Inhibition of IL-13 induced pSTAT6 in BEAS
# Type: cell-based
# Details: IL-13 induced pSTAT6, BEAS-2B cells, ELISA
# Procedure: BEAS-2B human cell line was seeded (100.000 cells/well) and incubated for 48 h at 37° C., 5% CO2, 95% humidity. Compounds were added and incubated 30 min followed by IL-13 as trigger. After 30 min incubation, cells were lysed and pSTAT6 determined by Fastscan phospho-stat6 (Tyr641) sandwich ELISA kit (cell signaling). Inhibitors were tested at 11 consecutive […] dilutions starting from 10 μM (10 μM-40 pM) in duplicate. Calculation of IC50 data, curves and QC analysis were made using Excel tools and GraphPadPrism software. QC criteria parameters: Z′≥0.35, Hill Slope range 0.5 to 5, S:B>2.
row,Compound,IC50
1,"Cc1nn(-c2cc3c(cc2OC(F)F)NCCO3)c2cc(-c3cnn4cccnc34)ncc12 [Example 1, 6-(difluoromethoxy)-7-(3-methyl-6-(pyrazolo[1,5-a]pyrimidin-3-yl)-1H-pyrazolo[4,3-c]pyridin-1-yl)-3,4-dihydro-2H-benzo[b][1,4]oxazine]",5.01 to 50.1 nM
2,"COc1cc2c(cc1-n1nc(C)c3cnc(-c4cnn5cccnc45)cc31)CN(S(C)(=O)=O)C2 [Example 2, 1-(6-methoxy-2-(methylsulfonyl)isoindolin-5-yl)-3-methyl-6-(pyrazolo[1,5-a]pyrimidin-3-yl)-1H-pyrazolo[4,3-c]pyridine]",5.01 to 50.1 nM
3,"COc1cc2c(cc1-n1nc(C)c3cnc(-c4cnn5cccnc45)cc31)CCCC(=O)N2 [Example 3, 8-methoxy-7-(3-methyl-6-(pyrazolo[1,5-a]pyrimidin-3-yl)-1H-pyrazolo[4,3-c]pyridin-1-yl)-1,3,4,5-tetrahydro-2H-benzo[b]azepin-2-one]",5.01 to 50.1 nM
4,"COc1cc2c(cc1-n1nc(C)c3cnc(-c4cnn5cccnc45)cc31)CCC(=O)N2 [Example 4, 7-methoxy-6-(3-methyl-6-(pyrazolo[1,5-a]pyrimidin-3-yl)-1H-pyrazolo[4,3-c]pyridin-1-yl)-3,4-dihydroquinolin-2(1H)-one]",5.01 to 50.1 nM
5,"COc1cc2c(cc1-n1nc(C)c3cnc(-c4cnn5cccnc45)cc31)C(=O)CCN2 [Example 5, 7-methoxy-6-(3-methyl-6-(pyrazolo[1,5-a]pyrimidin-3-yl)-1H-pyrazolo[4,3-c]pyridin-1-yl)-2,3-dihydroquinolin-4(1H)-one]",5.01 to 50.1 nM
6,"COc1cc2c(cc1-n1nc(C)c3cnc(-c4cnn5cccnc45)cc31)SCCN2 [Example 6, 6-methoxy-7-(3-methyl-6-(pyrazolo[1,5-a]pyrimidin-3-yl)-1H-pyrazolo[4,3-c]pyridin-1-yl)-3,4-dihydro-2H-benzo[b][1,4]thiazine]",< 5.01 nM
7,"COc1cc2c(cc1-n1nc(C)c3cnc(-c4cnn5cccnc45)cc31)SCC(=O)N2 [Example 7, 6-methoxy-7-(3-methyl-6-(pyrazolo[1,5-a]pyrimidin-3-yl)-1H-pyrazolo[4,3-c]pyridin-1-yl)-2H-benzo[b][1,4]thiazin-3(4H)-one]",5.01 to 50.1 nM
8,"COc1cc2c(cc1-n1nc(C)c3cnc(-c4cnn5cccnc45)cc31)S(=O)(=O)CCN2 [Example 8, 6-methoxy-7-(3-methyl-6-(pyrazolo[1,5-a]pyrimidin-3-yl)-1H-pyrazolo[4,3-c]pyridin-1-yl)-3,4-dihydro-2H-benzo[b][1,4]thiazine 1,1-dioxide]",5.01 to 50.1 nM
9,"COc1cc2c(cc1-n1nc(C)c3cnc(-c4cnn5cccnc45)cc31)OCCCN2 [Example 9, 7-methoxy-8-(3-methyl-6-(pyrazolo[1,5-a]pyrimidin-3-yl)-1H-pyrazolo[4,3-c]pyridin-1-yl)-2,3,4,5-tetrahydrobenzo[b][1,4]oxazepine]",5.01 to 50.1 nM
10,"COc1cc2c(cc1-n1nc(C)c3cnc(-c4cnn5cccnc45)cc31)CC(=O)N2 [Example 10, 6-methoxy-5-(3-methyl-6-(pyrazolo[1,5-a]pyrimidin-3-yl)-1H-pyrazolo[4,3-c]pyridin-1-yl)indolin-2-one]",5.01 to 50.1 nM
11,"COc1cc2c(cc1-n1nc(C)c3cnc(-c4cnn5cccnc45)cc31)OC(F)(F)C(=O)N2 [Example 11, 2,2-difluoro-6-methoxy-7-(3-methyl-6-(pyrazolo[1,5-a]pyrimidin-3-yl)-1H-pyrazolo[4,3-c]pyridin-1-yl)-2H-benzo[b][1,4]oxazin-3(4H)-one]",5.01 to 50.1 nM
12,"COc1cc2c(cc1-n1nc(C)c3cnc(-c4cnn5cccnc45)cc31)CN(C)C(=O)N2 [Example 12, 7-methoxy-3-methyl-6-(3-methyl-6-(pyrazolo[1,5-a]pyrimidin-3-yl)-1H-pyrazolo[4,3-c]pyridin-1-yl)-3,4-dihydroquinazolin-2(1H)-one]",50.1 to 501 nM
13,COc1cc2c(cc1-n1nc(C(=O)NC3CN(CC4CCOCC4)C3)c3cnc(-c4cnn5cccnc45)cc31)OCCN2 [Example 13],5.01 to 50.1 nM
14,"COc1cc2c(cc1-n1nc(C(=O)NCCCN3CCC(F)(F)CC3)c3cnc(-c4cnn5cccnc45)cc31)OCCN2 [Example 14, N-(3-(4,4-difluoropiperidin-1-yl)propyl)-1-(6-methoxy-3,4-dihydro-2H-benzo[b][1,4]oxazin-7-yl)-6-(pyrazolo[1,5-a]pyrimidin-3-yl)-1H-pyrazolo[4,3-c]pyridine-3-carboxamide]",5.01 to 50.1 nM
15,"COc1cc2c(cc1-n1nc(C(=O)NCCN3CCC4(CCC(=O)O4)CC3)c3cnc(-c4cnn5cccnc45)cc31)OCCN2 [Example 15, 1-(6-methoxy-3,4-dihydro-2H-benzo[b][1,4]oxazin-7-yl)-N-(2-(2-oxo-1-oxa-8-azaspiro[4.5]decan-8-yl)ethyl)-6-(pyrazolo[1,5-a]pyrimidin-3-yl)-1H-pyrazolo[4,3-c]pyridine-3-carboxamide]",< 5.01 nM
16,"COc1cc2c(cc1-n1nc(C(=O)NCCCN(C)C)c3cnc(-c4cnn5cccnc45)cc31)SCCN2 [Example 16, N-(3-(dimethylamino)propyl)-1-(6-methoxy-3,4-dihydro-2H-benzo[b][1,4]thiazin-7-yl)-6-(pyrazolo[1,5-a]pyrimidin-3-yl)-1H-pyrazolo[4,3-c]pyridine-3-carboxamide]",< 5.01 nM
17,"COc1cc2c(cc1-n1nc(C(=O)NC3CN(C)C3)c3cnc(-c4cnn5cccnc45)cc31)SCCN2 [Example 17, 1-(6-methoxy-3,4-dihydro-2H-benzo[b][1,4]thiazin-7-yl)-N-(1-methylazetidin-3-yl)-6-(pyrazolo[1,5-a]pyrimidin-3-yl)-1H-pyrazolo[4,3-c]pyridine-3-carboxamide]",5.01 to 50.1 nM
18,"COc1cc2c(cc1-n1nc(C(=O)NC[C@@H]3CN(C)CCO3)c3cnc(-c4cnn5cccnc45)cc31)SCCN2 [Example 18, (R)-1-(6-methoxy-3,4-dihydro-2H-benzo[b][1,4]thiazin-7-yl)-N-((4-methylmorpholin-2-yl)methyl)-6-(pyrazolo[1,5-a]pyrimidin-3-yl)-1H-pyrazolo[4,3-c]pyridine-3-carboxamide]",5.01 to 50.1 nM
19,"COc1cc2c(cc1-n1nc(NC(=O)OCCCN3CCOC(=O)C3)c3cnc(-c4cnn5cccnc45)cc31)SCCN2 [Example 19, 3-(2-oxomorpholino)propyl (1-(6-methoxy-3,4-dihydro-2H-benzo[b][1,4]thiazin-7-yl)-6-(pyrazolo[1,5-a]pyrimidin-3-yl)-1H-pyrazolo[4,3-c]pyridin-3-yl)carbamate]",5.01 to 50.1 nM
20,"COc1cc2c(cc1-n1nc(NC(=O)OCCN(C)C3CCOC3=O)c3cnc(-c4cnn5cccnc45)cc31)SCCN2 (stereo not shown) [Example 20, 2-(methyl(2-oxotetrahydrofuran-3-yl)amino)ethyl (1-(6-methoxy-3,4-dihydro-2H-benzo[b][1,4]thiazin-7-yl)-6-(pyrazolo[1,5-a]pyrimidin-3-yl)-1H-pyrazolo[4,3-c]pyridin-3-yl)carbamate]",5.01 to 50.1 nM
21,"COc1cc2c(cc1-n1nc(C(=O)NC[C@@H]3CN(C)CCO3)c3cnc(-c4cnn5cccnc45)cc31)SCC(=O)N2 [Example 21, (R)-1-(6-methoxy-3-oxo-3,4-dihydro-2H-benzo[b][1,4]thiazin-7-yl)-N-((4-methylmorpholin-2-yl)methyl)-6-(pyrazolo[1,5-a]pyrimidin-3-yl)-1H-pyrazolo[4,3-c]pyridine-3-carboxamide]",5.01 to 50.1 nM
22,"COc1cc2c(cc1-n1nc(C(=O)NC[C@H]3CN(C)CCO3)c3cnc(-c4cnn5cccnc45)cc31)SCC(=O)N2 [Example 22, (S)-1-(6-methoxy-3-oxo-3,4-dihydro-2H-benzo[b][1,4]thiazin-7-yl)-N-((4-methylmorpholin-2-yl)methyl)-6-(pyrazolo[1,5-a]pyrimidin-3-yl)-1H-pyrazolo[4,3-c]pyridine-3-carboxamide]",5.01 to 50.1 nM
23,"COc1cc2c(cc1-n1nc(C(=O)NCCCN(C)C)c3cnc(-c4cnn5cccnc45)cc31)SCC(=O)N2 [Example 23, N-(3-(dimethylamino)propyl)-1-(6-methoxy-3-oxo-3,4-dihydro-2H-benzo[b][1,4]thiazin-7-yl)-6-(pyrazolo[1,5-a]pyrimidin-3-yl)-1H-pyrazolo[4,3-c]pyridine-3-carboxamide]",5.01 to 50.1 nM
24,"COc1cc2c(cc1-n1nc(C(=O)NCCCN(C)C)c3cnc(-c4cnn5cccnc45)cc31)CCC(=O)N2 [Example 24, N-(3-(dimethylamino)propyl)-1-(7-methoxy-2-oxo-1,2,3,4-tetrahydroquinolin-6-yl)-6-(pyrazolo[1,5-a]pyrimidin-3-yl)-1H-pyrazolo[4,3-c]pyridine-3-carboxamide]",50.1 to 501 nM
25,"COc1cc2c(cc1-n1nc(C(=O)NCCCN(C)C)c3cnc(-c4cnn5cccnc45)cc31)CCCN2 [Example 25, N-(3-(dimethylamino)propyl)-1-(7-methoxy-1,2,3,4-tetrahydroquinolin-6-yl)-6-(pyrazolo[1,5-a]pyrimidin-3-yl)-1H-pyrazolo[4,3-c]pyridine-3-carboxamide]",5.01 to 50.1 nM
26,"CNc1nn(-c2cc3c(cc2OC)NC(=O)CC3)c2cc(-c3cnn4cccnc34)ncc12 [Example 26, 7-methoxy-6-(3-(methylamino)-6-(pyrazolo[1,5-a]pyrimidin-3-yl)-1H-pyrazolo[4,3-c]pyridin-1-yl)-3,4-dihydroquinolin-2(1H)-one]",5.01 to 50.1 nM
27,"COc1cc2c(cc1-n1nc(NC(=O)OCCN(C)C)c3cnc(-c4cnn5cccnc45)cc31)CCC(=O)N2 [Example 27, 2-(dimethylamino)ethyl (1-(7-methoxy-2-oxo-1,2,3,4-tetrahydroquinolin-6-yl)-6-(pyrazolo[1,5-a]pyrimidin-3-yl)-1H-pyrazolo[4,3-c]pyridin-3-yl)carbamate]",5.01 to 50.1 nM
28,"COc1cc2c(cc1-n1nc(NC(=O)OCCN(C)C)c3cnc(-c4cnn5cccnc45)cc31)SCCN2 [Example 28, 2-(dimethylamino)ethyl (1-(6-methoxy-3,4-dihydro-2H-benzo[b][1,4]thiazin-7-yl)-6-(pyrazolo[1,5-a]pyrimidin-3-yl)-1H-pyrazolo[4,3-c]pyridin-3-yl)carbamate]",< 5.01 nM
